Targets include Carbonic anhydrase 9 (Homo sapiens, UniProt Q16790); Carbonic anhydrase 1 (Homo sapiens, UniProt P00915); Carbonic anhydrase 12 (Homo sapiens, UniProt O43570).
Assay [1] deals with Oryctolagus cuniculus. Kind of assay: Antiglaucoma activity in New Zealand albino rabbit assessed as reduction in intraocular pressure administered topically as eye drops measured after 4 hrs by pneumotonometer-analysis. The assay is classed as functional.
The test system of assay [2] is Oryctolagus cuniculus. In words: Antiglaucoma activity in New Zealand albino rabbit assessed as reduction in carbomer-induced intraocular pressure administered topically as eye drops measured at 60 mins post-drug administration by pneumotonometer-analysis. The assay is classed as functional. As to conditions: 1 h.
For assay [3], the system named is Oryctolagus cuniculus. Kind of assay: Antiglaucoma activity in New Zealand albino rabbit assessed as reduction in carbomer-induced intraocular pressure administered topically as eye drops measured at 240 mins post-drug administration by pneumotonometer-analysis. The assay is classed as functional. Conditions: 4 h.
Assay [4] concerns Oryctolagus cuniculus. In words: Antiglaucoma activity in New Zealand albino rabbit assessed as reduction in carbomer-induced intraocular pressure administered topically as eye drops measured at 60 to 120 mins post administration by pneumotonometer-analysis. As to conditions: time 60-120 min. The assay is classed as functional.

Each structure is given as a SMILES string. Activity calls are given as the source filed them. No cut-off for these calls is given here.

Sequence of Carbonic anhydrase 1 (P00915 whole entry): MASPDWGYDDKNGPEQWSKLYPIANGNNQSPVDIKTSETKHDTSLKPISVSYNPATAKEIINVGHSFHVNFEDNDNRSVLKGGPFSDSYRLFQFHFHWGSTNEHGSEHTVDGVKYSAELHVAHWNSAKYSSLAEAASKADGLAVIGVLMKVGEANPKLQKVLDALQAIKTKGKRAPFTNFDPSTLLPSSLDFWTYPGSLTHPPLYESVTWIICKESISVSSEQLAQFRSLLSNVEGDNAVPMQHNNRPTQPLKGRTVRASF
Sequence of Carbonic anhydrase 12 (O43570 whole entry): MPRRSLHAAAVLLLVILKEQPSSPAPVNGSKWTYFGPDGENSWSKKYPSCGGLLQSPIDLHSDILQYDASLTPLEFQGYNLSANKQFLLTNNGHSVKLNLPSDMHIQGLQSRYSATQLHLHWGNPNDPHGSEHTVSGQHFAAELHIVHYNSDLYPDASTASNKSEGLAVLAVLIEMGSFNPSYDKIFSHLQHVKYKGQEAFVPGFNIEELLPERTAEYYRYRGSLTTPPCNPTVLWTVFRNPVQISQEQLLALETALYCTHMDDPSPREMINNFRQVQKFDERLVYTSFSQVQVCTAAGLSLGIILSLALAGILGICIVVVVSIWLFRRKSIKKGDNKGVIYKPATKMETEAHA
Description for Carbonic anhydrase 12: Inhibition of human CA12 preincubated for 15 mins by phenol red dye based stopped flow CO2 hydration assay
Description for Carbonic anhydrase 9: Inhibition of human CA9 preincubated for 15 mins by phenol red dye based stopped flow CO2 hydration assay

As to `CC(C)CN(CC(C)C)C(=O)Nc1cccc(S(N)(=O)=O)c1`, the affinity at Carbonic anhydrase 9, expressed as Ki, was 1790 nM.

Regarding `CCCCCCN(CCCCCC)C(=O)Nc1cccc(S(N)(=O)=O)c1`, the inhibition constant Ki – broadly, a measure of affinity in units of concentration, obtained from inhibition or displacement – at Carbonic anhydrase 9 was 2110 nM.

`COC(=O)C(CCSC)NC(=O)Nc1cccc(S(N)(=O)=O)c1` (stereo not given): the inhibition constant (Ki) at Carbonic anhydrase 9 amounted to 1380 nM; at Carbonic anhydrase 1, 1730 nM; at Carbonic anhydrase 12, 426 nM.

For `CCCN(CCC)C(=O)Nc1cccc(S(N)(=O)=O)c1`, the Ki at Carbonic anhydrase 9 is 2190 nM.

As to `COC(=O)[C@H](Cc1ccccc1)NC(=O)Nc1ccc(S(N)(=O)=O)cc1`, the figures for the inhibition constant Ki on Carbonic anhydrase 9, at Carbonic anhydrase 1 and on Carbonic anhydrase 12 were 126 nM, 62.3 nM and 42.6 nM, respectively. Moreover, the results for the Activity in the assay on Oryctolagus cuniculus [1] and with Oryctolagus cuniculus [2] were 27 mmHg and 36 mmHg, respectively.

Consider `CN(C)C(=O)Nc1ccc(S(N)(=O)=O)cc1`, for which the results for the Ki on Carbonic anhydrase 9, at Carbonic anhydrase 1 and on Carbonic anhydrase 12 were 1400 nM, 483 nM and 705 nM, respectively.

As for `CCN(CC)C(=O)Nc1cccc(S(N)(=O)=O)c1`, the Ki at Carbonic anhydrase 9 was found to be 1730 nM; at Carbonic anhydrase 1 it was 2880 nM; on Carbonic anhydrase 12, 375 nM.

`NS(=O)(=O)c1cccc(NC(=O)Nc2cccc(C(F)(F)F)c2)c1`: the Ki on Carbonic anhydrase 9 amounted to 1600 nM; at Carbonic anhydrase 1 it was 2060 nM; at Carbonic anhydrase 12, 490 nM.

With `CCN[C@H]1C[C@H](C)S(=O)(=O)c2sc(S(N)(=O)=O)cc21` [DORZOLAMIDE], in the assay with Oryctolagus cuniculus [1], the Activity was 24 mmHg.

On to `CCC(C)NC(=O)Nc1cccc(S(N)(=O)=O)c1` (stereo not given), for which the results for the inhibitory constant (Ki) at Carbonic anhydrase 9, on Carbonic anhydrase 1 and at Carbonic anhydrase 12 were 2120 nM, 69.9 nM and 600 nM, respectively.

On Carbonic anhydrase 9, `CC(C)N(C(=O)Nc1cccc(S(N)(=O)=O)c1)C(C)C` had an inhibition constant Ki of 2090 nM.

Consider `NS(=O)(=O)c1cccc(NC(=O)Nc2ccccc2)c1`, for which the inhibition constant (Ki) stood at 1800 nM on Carbonic anhydrase 9, 449 nM at Carbonic anhydrase 1 and 356 nM at Carbonic anhydrase 12.

For the compound `COC(=O)C(CC(C)C)NC(=O)Nc1ccc(S(N)(=O)=O)cc1` (stereo not given), the inhibition constant Ki on Carbonic anhydrase 9 came to 937 nM; at Carbonic anhydrase 1 it was 226 nM; at Carbonic anhydrase 12, 586 nM.

Take `CC(C)NC(=O)Nc1ccc(S(N)(=O)=O)cc1`: the Ki at Carbonic anhydrase 9 amounted to 640 nM; on Carbonic anhydrase 1, 438 nM; at Carbonic anhydrase 12, 593 nM.

For the compound `NS(=O)(=O)c1ccc(NC(=O)NCC(=O)NCC(=O)O)cc1`, the inhibition constant (Ki) at Carbonic anhydrase 9 is 1570 nM; at Carbonic anhydrase 1, 7570 nM; at Carbonic anhydrase 12, 426 nM. For the same compound, the Activity with Oryctolagus cuniculus [3] was 19 mmHg. Further, the outcome in the assay on Oryctolagus cuniculus [4] and in the assay with Oryctolagus cuniculus [1] was Active.

Regarding `COC(=O)CNC(=O)CNC(=O)Nc1cccc(S(N)(=O)=O)c1`, the Ki is 691 nM at Carbonic anhydrase 9, 7190 nM on Carbonic anhydrase 1 and 344 nM at Carbonic anhydrase 12.

Consider `CN(CCc1ccccc1)C(=O)Nc1cccc(S(N)(=O)=O)c1`, for which the affinity at Carbonic anhydrase 9 corresponds to a Ki of 1180 nM. That is a single-digit micromolar value.

As for `CC(C)NC(=O)Nc1cccc(S(N)(=O)=O)c1`, the values for the Ki on Carbonic anhydrase 9 and at Carbonic anhydrase 12 were 2170 nM and 612 nM, respectively.

In the case of `CCC(C)NC(=O)Nc1ccc(S(N)(=O)=O)cc1` (stereo not given), the values for the Ki on Carbonic anhydrase 9, on Carbonic anhydrase 1 and at Carbonic anhydrase 12 were 507 nM, 669 nM and 637 nM, respectively.

Regarding `COC(=O)CNC(=O)Nc1ccc(S(N)(=O)=O)cc1`, the Ki at Carbonic anhydrase 9 came to 1920 nM.

On to `NS(=O)(=O)c1cccc(NC(=O)Nc2ccccc2F)c1`, for which the Ki on Carbonic anhydrase 9 came out at 1480 nM; on Carbonic anhydrase 1 it was 737 nM; at Carbonic anhydrase 12 it was 512 nM.

Consider `NS(=O)(=O)c1cccc(NC(=O)NCCc2ccccc2)c1`, for which the Ki at Carbonic anhydrase 9 was found to be 1330 nM; on Carbonic anhydrase 1 it was 296 nM; on Carbonic anhydrase 12, 487 nM.

With `COC(=O)C(CC(C)C)NC(=O)Nc1cccc(S(N)(=O)=O)c1` (stereo not given), the Ki at Carbonic anhydrase 9 was found to be 839 nM; at Carbonic anhydrase 1, 5280 nM; on Carbonic anhydrase 12 it was 589 nM.

As for `COC(=O)CCCNC(=O)Nc1cccc(S(N)(=O)=O)c1`, the figures for the inhibitory constant (Ki) at Carbonic anhydrase 9, on Carbonic anhydrase 1 and at Carbonic anhydrase 12 were 746 nM, 8280 nM and 494 nM, respectively.

Consider `NS(=O)(=O)c1cccc(NC(=O)N2CCCCC2)c1`, for which the inhibitory constant (Ki) on Carbonic anhydrase 9 was 541 nM; at Carbonic anhydrase 1, 178 nM; on Carbonic anhydrase 12, 278 nM.

Regarding `COC(=O)CC(NC(=O)Nc1cccc(S(N)(=O)=O)c1)C(=O)OC` (stereo not given), the inhibitory constant (Ki) on Carbonic anhydrase 9 was determined as 860 nM; on Carbonic anhydrase 1, 8380 nM.

Turning to `COC(=O)CNC(=O)Nc1cccc(S(N)(=O)=O)c1`, the Ki at Carbonic anhydrase 9 stood at 825 nM; on Carbonic anhydrase 1 it was 6070 nM.

Regarding `CN(Cc1ccccc1)C(=O)Nc1cccc(S(N)(=O)=O)c1`, on Carbonic anhydrase 9, the Ki is 1440 nM. Also, in the assay with Oryctolagus cuniculus [4], the Activity is reported as 11 mmHg. Further, in the assay with Oryctolagus cuniculus [1], the outcome was Active.

As for `COC(=O)C(Cc1ccccc1)NC(=O)Nc1cccc(S(N)(=O)=O)c1` (stereo not given), the results for the Ki on Carbonic anhydrase 9, at Carbonic anhydrase 1 and at Carbonic anhydrase 12 were 943 nM, 809 nM and 275 nM, respectively. For the same compound, the Activity in the assay with Oryctolagus cuniculus [4] was 16 mmHg. Besides, in the assay with Oryctolagus cuniculus [1], the result was Active.

As to `COC(=O)CCC(NC(=O)Nc1ccc(S(N)(=O)=O)cc1)C(=O)OC` (stereo not given), the results for the inhibition constant (Ki) at Carbonic anhydrase 9, at Carbonic anhydrase 1 and on Carbonic anhydrase 12 were 596 nM, 62 nM and 726 nM, respectively.

The record behind these values is ChEMBL document CHEMBL5042507, “One-Pot Procedure for the Synthesis of Asymmetric Substituted Ureido Benzene Sulfonamides as Effective Inhibitors of Carbonic Anhydrase Enzymes” (J Med Chem, 2022).
